# In patent US11406713B2, “Xanthine oxidase inhibitor formulations” (XORTX THERAPEUTICS, INC., priority 2013, dated 2022):
# What was measured:
# [1] = background statement; cited from earlier work
# [2] = background statement; cited from earlier work; remark: listed apart in the source
# [3] = equilibrium solubility and dissolution profile of oxypurinol in aqueous solution; assay type: physicochemical; conditions: for equilibrium solubility, dissolution and solubility: compared to oxypurinol free acid (FIG. 1)
"equilibrium solubility, dissolution and solubility ([3]; aqueous solution, in the presence of a 1 molar equivalent of lysine, FIG. 2)","equilibrium solubility, dissolution ([3]; in choline, FIG. 4)","equilibrium solubility, dissolution and solubility ([3]; in the presence of a 1 molar equivalent of L-arginine, FIG. 3)",SMILES,solubility [1],bioavailability [2],"equilibrium solubility, dissolution rate and solubility ([3]; using organic and or basic organic molecules, in aqueous solutions, compared to oxypurinol free acid)"
,,,"Oc1ncnc2[nH]ncc12 [Allopurinol, 4-hydroxy-pyrazolo[3,4-d]pyrimidine]",poorly soluble,poorly bioavailable,
increased dissolution and solubility,increased dissolution,increased dissolution and solubility,"O=c1[nH]c(=O)c2c[nH]nc2[nH]1 [oxypurinol, 4,6-dihydroxypyrazolo[3,4-d]pyrimidine]",poorly soluble,poorly bioavailable,"increased equilibrium solubility, increased dissolution rate and solubility"
